In patent US20260193238A1, “PHARMACEUTICAL COMPOUNDS AS PARP7 AND/OR PARP1 INHIBITORS” (Duke Street Bio Limited, priority 2022, published 2026) one finds IC50 data, which are given here for 41 compounds.

PARP1, sequence (P09874 whole entry): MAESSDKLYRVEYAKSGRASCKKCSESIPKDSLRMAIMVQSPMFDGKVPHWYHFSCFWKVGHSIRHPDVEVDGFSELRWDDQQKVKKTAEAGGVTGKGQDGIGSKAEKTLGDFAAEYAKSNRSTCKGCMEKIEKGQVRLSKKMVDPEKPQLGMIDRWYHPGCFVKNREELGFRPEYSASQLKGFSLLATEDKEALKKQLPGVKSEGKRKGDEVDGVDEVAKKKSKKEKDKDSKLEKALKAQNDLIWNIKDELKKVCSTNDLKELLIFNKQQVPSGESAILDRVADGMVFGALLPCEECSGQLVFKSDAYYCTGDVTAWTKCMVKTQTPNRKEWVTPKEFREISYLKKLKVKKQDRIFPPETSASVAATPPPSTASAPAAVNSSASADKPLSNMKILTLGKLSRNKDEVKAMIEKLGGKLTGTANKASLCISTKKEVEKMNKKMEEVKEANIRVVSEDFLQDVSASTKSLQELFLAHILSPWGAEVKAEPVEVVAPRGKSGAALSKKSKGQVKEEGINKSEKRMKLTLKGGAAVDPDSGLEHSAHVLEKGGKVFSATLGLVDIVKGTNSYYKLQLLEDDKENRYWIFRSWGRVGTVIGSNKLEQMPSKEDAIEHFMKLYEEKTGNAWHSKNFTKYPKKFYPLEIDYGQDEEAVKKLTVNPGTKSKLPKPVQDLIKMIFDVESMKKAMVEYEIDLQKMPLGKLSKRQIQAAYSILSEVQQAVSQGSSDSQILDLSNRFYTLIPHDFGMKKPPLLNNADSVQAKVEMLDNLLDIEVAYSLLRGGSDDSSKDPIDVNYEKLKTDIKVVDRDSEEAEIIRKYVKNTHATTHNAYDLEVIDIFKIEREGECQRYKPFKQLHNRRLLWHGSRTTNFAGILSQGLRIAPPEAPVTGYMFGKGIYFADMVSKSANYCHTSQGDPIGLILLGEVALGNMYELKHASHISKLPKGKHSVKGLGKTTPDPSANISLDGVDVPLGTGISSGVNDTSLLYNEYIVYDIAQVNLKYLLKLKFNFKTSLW

The first experiment concerns the target PARP1 (Homo sapiens, UniProt P09874). Nature of the experiment: PARP1 biochemical DELFIA assay (auto-PARylation). To be noted: Table 1.
Experimental: Prior to assay, wells were washed 3×5 min in coating wash buffer.
% data was fitted to a non-linear regression equation (log inhibitor vs response-variable slope 4-parameters) to obtain IC50 values.
With `O=C(CCN1CCCCC1c1cc(C(F)(F)F)c(=O)[nH]n1)N1CCN(c2ncc(C(F)(F)F)cn2)CC1` (racemic) [Compound 21rac], the concentration for half-maximal inhibition (IC50) was 10 to 100 nM.
Turning to `O=C(CN1CCN(c2ncc(C(F)(F)F)cn2)CC1)N1CCCC1c1cc(C(F)(F)F)c(=O)[nH]n1` (single isomer, unassigned) [Compound 32a], the IC50 was 100 to 1000 nM.
Same read-out and setting: as for `O=C(CCN1CCCC(c2cc(C(F)(F)F)c(=O)[nH]n2)C1)N1CCN(c2ncc(Cl)cn2)CC1` (racemic) [Compound 20rac], the figure is 100 to 1000 nM; as for `O=C(CCN1CCCC(c2cc(C(F)(F)F)c(=O)[nH]n2)C1)N1CCN(c2ccc(F)cn2)CC1` (single isomer, unassigned) [Compound 8a], 100 to 1000 nM.
Turning to `O=C(CCN1CCCC(c2cc(C(F)(F)F)c(=O)[nH]n2)C1)N1CCN(c2ncc(C(F)(F)F)cn2)CC1` (single isomer, unassigned) [Compound 1b, 6-(1-(3-oxo-3-(4-(5-(trifluoromethyl)pyrimidin-2-yl)piperazin-1-yl)propyl)piperidin-3-yl)-4-(trifluoromethyl)pyridazin-3(2H)-one], the IC50 was in the range of 10 to 100 nM.
Compound `O=C(CN1CCC(c2cc(C(F)(F)F)c(=O)[nH]n2)C1)N1CCN(c2ncc(C(F)(F)F)cn2)CC1` (racemic) [Compound 19rac] came in with an IC50 of 100 to 1000 nM.
For the compound `O=C(CN1CCCC1c1cc(C(F)(F)F)c(=O)[nH]n1)N1CCN(c2ncc(C(F)(F)F)cn2)CC1` (single isomer, unassigned) [Compound 24a, 6-(1-(2-oxo-2-(4-(5-(trifluoromethyl)pyrimidin-2-yl)piperazin-1-yl)ethyl)pyrrolidin-2-yl)-4-(trifluoromethyl)pyridazin-3(2H)-one], the IC50 lay within 1000 to 10000 nM.

Still in this experiment, the particulars now being: Table 1A.
As for `O=C(CN1CCCC1c1cc(C(F)(F)F)c(=O)[nH]n1)N1CCN(c2ncc(F)cc2C(F)(F)F)CC1` (single isomer, unassigned) [Compound 120a], the IC50 is 1000 to 10000 nM.
With `O=C(CN1CCN(c2ncc(C(F)(F)F)cn2)CC1)N1CCCC1c1c[nH]c(=O)c(C(F)(F)F)c1` (single isomer, unassigned) [Compound 63a], the 50% inhibitory concentration (IC50) lay in the range of 10 to 100 nM.
Same read-out and setting: with `O=C(CN1CCCC1c1c[nH]c(=O)c(C(F)(F)F)c1)N1CCN(c2ncc(C(F)(F)F)cn2)CC1` (single isomer, unassigned) [Compound 60b, 5-(1-(2-oxo-2-(4-(5-(trifluoromethyl)pyrimidin-2-yl)piperazin-1-yl)ethyl)pyrrolidin-2-yl)-3-(trifluoromethyl)pyridin-2(1H)-one] the figure was 100 to 1000 nM; with `CNC(=O)c1ccc(N2CCN(C(=O)CCN3CCC(c4cc(C(F)(F)F)c(=O)[nH]n4)CC3)CC2)cn1` [Compound 59], 10 to 100 nM.
On the same count and under the same terms, with `O=C(CN1CCCC1c1c[nH]c(=O)c(C(F)(F)F)c1)N1CCN(c2ncc(C(F)(F)F)cn2)CC1` (single isomer, unassigned) [Compound 60a, 5-(1-(2-oxo-2-(4-(5-(trifluoromethyl)pyrimidin-2-yl)piperazin-1-yl)ethyl)pyrrolidin-2-yl)-3-(trifluoromethyl)pyridin-2(1H)-one] the figure was 10 to 100 nM; with `CN(c1ncc(C(F)(F)F)cn1)C1CCN(C(=O)CN2CCCC2c2cc(C(F)(F)F)c(=O)[nH]n2)CC1` (single isomer, unassigned) [Compound 107a], 1000 to 10000 nM; with `O=C(CN1CCCC1c1cc(C(F)(F)F)c(=O)[nH]n1)N1CCN(c2ncc(F)cc2Cl)CC1` (single isomer, unassigned) [Compound 116b], 1000 to 10000 nM.
The same measure, in the same setting: with `N#Cc1ccc2nc(N3CCN(C(=O)CN4CCCC4c4cc(C(F)(F)F)c(=O)[nH]n4)CC3)oc2c1` (single isomer, unassigned) [Compound 96a] the figure was 100 to 1000 nM.
`O=C(CN1CCCC1c1cc(C(F)(F)F)c(=O)[nH]n1)N1CCN(c2cc(Cl)c(F)cn2)CC1` (single isomer, unassigned) [Compound 80b] returned an IC50 of 10 to 100 nM.
Still for that read-out and setting: with `CNC(=O)c1ccc(N2CCN(C(=O)CN3CCC(c4n[nH]c(=O)c5ccccc45)CC3)CC2)cn1` [Compound 50] the figure was 10 to 100 nM; with `O=C(CN1CCCC1c1c[nH]c(=O)c(C(F)(F)F)c1)N1CCN(c2ncc(Cl)cn2)CC1` (single isomer, unassigned) [Compound 74b], 1000 to 10000 nM.
The same measure, in the same setting: as for `O=C(CN1CCCC1c1cc(C(F)(F)F)c(=O)[nH]n1)N1CCN(c2nc3cc(Cl)ccc3o2)CC1` (single isomer, unassigned) [Compound 99a], the figure is no more than 10 nM; as for `O=C(CN1CCCC1c1cc(C2CC2)c(=O)[nH]n1)N1CCN(c2ncc(C(F)(F)F)cn2)CC1` (racemic) [Compound 65rac], 10 to 100 nM; as for `N#Cc1cnc(N2CCN(C(=O)CN3CCCC3c3cc(C(F)(F)F)c(=O)[nH]n3)CC2)c(C(F)(F)F)c1` (single isomer, unassigned) [Compound 124b], 1000 to 10000 nM.
`N#Cc1ccc2nc(N3CCN(C(=O)CN4CCCC4c4cc(C(F)(F)F)c(=O)[nH]n4)CC3)oc2c1` (single isomer, unassigned) [Compound 96b] registered an IC50 of no more than 10 nM.
Still for that read-out and setting: with `O=C(CN1CCCC1c1cc(C(F)(F)F)c(=O)[nH]n1)N1CCN(c2ncc(C3CC3)cn2)CC1` (single isomer, unassigned) [Compound 69a] the figure was 10 to 100 nM; with `O=C(CN1CCCC1c1c[nH]c(=O)c(C(F)(F)F)c1)N1CCN(c2ncc(C(F)(F)F)cn2)CC1` (racemic) [Compound 60rac, 5-(1-(2-oxo-2-(4-(5-(trifluoromethyl)pyrimidin-2-yl)piperazin-1-yl)ethyl)pyrrolidin-2-yl)-3-(trifluoromethyl)pyridin-2(1H)-one], 100 to 1000 nM; with `N#Cc1cc(C2CCCN2CC(=O)N2CCN(c3nc4cc(F)ccc4o3)CC2)n[nH]c1=O` (single isomer, unassigned) [Compound 149b], greater than 10000 nM.
The compound `O=C(CN1CCCC1c1cc(C(F)(F)F)c(=O)[nH]n1)N1CCC2(CC1)CN(c1ncc(C(F)(F)F)cn1)C2` (single isomer, unassigned) [Compound 101b] returned a half-inhibitory concentration (IC50) of 100 to 1000 nM.
The same measure, in the same setting: with `O=C(CN1CCCC1c1n[nH]c(=O)c2ccccc12)N1CCN(c2ncc(C(F)(F)F)cn2)CC1` (single isomer, unassigned) [Compound 38b, 4-(1-(2-oxo-2-(4-(5-(trifluoromethyl)pyrimidin-2-yl)piperazin-1-yl)ethyl)pyrrolidin-2-yl)phthalazin-1(2H)-one] the figure was 1000 to 10000 nM.
With `O=C(CN1CC(F)(F)C[C@H]1c1cc(C(F)(F)F)c(=O)[nH]n1)N1CCN(c2ncc(C(F)(F)F)cn2)CC1` [Compound 91b, (S)-6-(4,4-difluoro-1-(2-oxo-2-(4-(5-(trifluoromethyl)pyrimidin-2-yl)piperazin-1-yl)ethyl)pyrrolidin-2-yl)-4-(trifluoromethyl)pyridazin-3(2H)-one], the IC50 is 1000 to 10000 nM.
Same read-out and setting: as for `O=C(CN1CCOCC1c1cc(C(F)(F)F)c(=O)[nH]n1)N1CCN(c2ncc(C(F)(F)F)cn2)CC1` (single isomer, unassigned) [Compound 88a], the figure is 100 to 1000 nM; as for `O=C(CN1Cc2ccccc2C1c1cc(C(F)(F)F)c(=O)[nH]n1)N1CCN(c2ncc(C(F)(F)F)cn2)CC1` (single isomer, unassigned) [Compound 104a, 6-(2-(2-oxo-2-(4-(5-(trifluoromethyl)pyrimidin-2-yl)piperazin-1-yl)ethyl)isoindolin-1-yl)-4-(trifluoromethyl)pyridazin-3(2H)-one], 100 to 1000 nM; as for `O=C(CN1CCCC1c1cc(C(F)(F)F)c(=O)[nH]n1)N1CCN(c2nc3cc(F)ccc3o2)CC1` (single isomer, unassigned) [Compound 150b], 1000 to 10000 nM.
The same measure, in the same setting: with `N#Cc1cnc(N2CCN(C(=O)CN3CCCC3c3c[nH]c(=O)c(C(F)(F)F)c3)CC2)nc1` (single isomer, unassigned) [Compound 76a] the figure was 1000 to 10000 nM.
The same measure, in the same setting: with `O=C(CN1CCCC1c1cc(C(F)(F)F)c(=O)[nH]n1)N1CCN(c2ncc(Cl)cn2)CC1` (single isomer, unassigned) [Compound 35a] the figure was 10 to 100 nM; with `Cc1[nH]c(=O)c(C(F)(F)F)cc1C1CCCN1CC(=O)N1CCN(c2ncc(C(F)(F)F)cn2)CC1` (single isomer, unassigned) [Compound 102b, 6-methyl-5-(1-(2-oxo-2-(4-(5-(trifluoromethyl)pyrimidin-2-yl)piperazin-1-yl)ethyl)pyrrolidin-2-yl)-3-(trifluoromethyl)pyridin-2(1H)-one], 1000 to 10000 nM.
Compound `O=C(CN1CCCC1c1cc(C(F)(F)F)c(=O)[nH]n1)C1CCN(c2ncc(C(F)(F)F)cn2)CC1` (single isomer, unassigned) [Compound 75a] displayed an IC50 of 10 to 100 nM.
The same measure, in the same setting: with `COC1CC(c2cc(C(F)(F)F)c(=O)[nH]n2)N(CC(=O)N2CCN(c3ncc(C(F)(F)F)cn3)CC2)C1` (single isomer, unassigned) [Compound 138cis2, 6-(4-methoxy-1-(2-oxo-2-(4-(5-(trifluoromethyl)pyrimidin-2-yl)piperazin-1-yl)ethyl)pyrrolidin-2-yl)-4-(trifluoromethyl)pyridazin-3(2H)-one] the figure was 1000 to 10000 nM.
Compound `O=C(CN1CCCC1c1cc(C(F)(F)F)c(=O)[nH]n1)N1CCN(c2ncc(C3CC3)cn2)CC1` (single isomer, unassigned) [Compound 69b] showed a half-inhibitory concentration (IC50) of 1000 to 10000 nM.
Same read-out and setting: with `O=C(CN1CCCC1c1cc(C(F)(F)F)c(=O)[nH]n1)N1CCN(c2ccc(F)cn2)CC1` (single isomer, unassigned) [Compound 46a] the figure was 10 to 100 nM.
`CNC(=O)c1ccc(N2CCN(C(=O)CN3CCC(c4cc(C(F)(F)F)c(=O)[nH]n4)CC3)CC2)cn1` [Compound 64] displayed an IC50 of 100 to 1000 nM.
Still for that read-out and setting: with `CNC(=O)c1ccc(N2CCN(C(=O)CCN3CCC3c3cc(C(F)(F)F)c(=O)[nH]n3)CC2)cn1` (single isomer, unassigned) [Compound 56b] the figure was 100 to 1000 nM.
On the same count and under the same terms, as for `O=C(CN1CCCCC1c1cc(C(F)(F)F)c(=O)[nH]n1)N1CCN(c2ncc(C(F)(F)F)cn2)CC1` (single isomer, unassigned) [Compound 66a], the figure is 100 to 1000 nM.
